Active and inactive are the calls of the source.
What was measured:
[1] = target: T1, Low molecular weight phosphotyrosine protein phosphatase (Homo sapiens, UniProt P24666); assay type: functional; settings: read-out: IC50_Mean
T1 sequence (P24666 whole entry): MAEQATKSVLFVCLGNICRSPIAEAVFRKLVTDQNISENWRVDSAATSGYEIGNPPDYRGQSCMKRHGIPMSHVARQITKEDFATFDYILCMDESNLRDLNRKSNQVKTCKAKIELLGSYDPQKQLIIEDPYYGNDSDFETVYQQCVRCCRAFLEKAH

[2] = target: T2, Carboxy-terminal domain RNA polymerase II polypeptide A small phosphatase 1 (Homo sapiens, UniProt Q9GZU7); assay: CTDSP1 inhibitors, concentration-response, biochemical, absorbance readout, ultra-high-throughput screen actives (AID 540297); assay type: functional
T2 sequence (Q9GZU7 whole entry): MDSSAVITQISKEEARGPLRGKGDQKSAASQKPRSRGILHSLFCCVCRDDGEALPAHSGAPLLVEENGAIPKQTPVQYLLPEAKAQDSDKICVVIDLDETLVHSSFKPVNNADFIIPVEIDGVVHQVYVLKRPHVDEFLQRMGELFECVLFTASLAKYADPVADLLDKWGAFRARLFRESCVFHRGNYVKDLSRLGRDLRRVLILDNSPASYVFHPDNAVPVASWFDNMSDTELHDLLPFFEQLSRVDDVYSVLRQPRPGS

[3] = target: T1, Low molecular weight phosphotyrosine protein phosphatase; assay type: functional; settings: read-out: IC50_Mean; remark: listed apart in the source
[4] = target: T3, Tyrosine-protein phosphatase non-receptor type 22 (Homo sapiens, UniProt Q9Y2R2); assay: PTPN22 enzyme inhibitors – biochemical, fluorescence, LYP catalytic domain, selectivity assay for LMPTP inhibitor project, dose response (AID 652006); assay type: functional; settings: read-out: IC50_Mean
T3 sequence (Q9Y2R2 whole entry): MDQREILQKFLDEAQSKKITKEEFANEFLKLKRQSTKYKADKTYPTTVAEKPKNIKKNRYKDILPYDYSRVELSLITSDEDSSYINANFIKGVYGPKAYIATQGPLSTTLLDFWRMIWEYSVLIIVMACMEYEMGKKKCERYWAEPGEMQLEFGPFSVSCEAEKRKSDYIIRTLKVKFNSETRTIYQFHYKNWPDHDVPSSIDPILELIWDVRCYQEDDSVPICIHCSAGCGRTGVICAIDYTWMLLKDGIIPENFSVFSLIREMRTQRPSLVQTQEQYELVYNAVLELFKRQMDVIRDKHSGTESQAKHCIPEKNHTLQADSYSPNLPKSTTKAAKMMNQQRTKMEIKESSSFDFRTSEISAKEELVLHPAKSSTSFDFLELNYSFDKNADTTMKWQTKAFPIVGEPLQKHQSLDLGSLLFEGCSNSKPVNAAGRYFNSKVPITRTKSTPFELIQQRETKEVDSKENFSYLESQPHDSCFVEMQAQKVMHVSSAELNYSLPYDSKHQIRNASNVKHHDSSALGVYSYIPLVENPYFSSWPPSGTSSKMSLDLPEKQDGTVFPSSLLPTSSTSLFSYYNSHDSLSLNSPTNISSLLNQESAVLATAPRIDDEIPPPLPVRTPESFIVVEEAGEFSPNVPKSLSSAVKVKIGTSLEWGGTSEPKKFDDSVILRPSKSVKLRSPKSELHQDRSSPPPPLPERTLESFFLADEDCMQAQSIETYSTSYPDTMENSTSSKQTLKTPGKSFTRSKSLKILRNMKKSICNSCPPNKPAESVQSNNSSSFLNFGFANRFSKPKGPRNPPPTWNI

Beta-lactamase [5] = target: T4, Beta-lactamase (Pseudomonas aeruginosa, UniProt Q79MP6); assay: […] counterscreen for selective VIM-2 inhibitors: dose response biochemical high throughput screening assay to identify inhibitors of IMP-1 metallo-beta-lactamase.
Beta-lactamase [6] = target: Beta-lactamase (Salmonella choleraesuis (strain SC-B67), UniProt Q5J463); assay: Epi-absorbance-based counterscreen for selective VIM-2 inhibitors: dose response biochemical high throughput screening assay to identify inhibitors of TEM-1 serine-beta-lactamase.
Beta-lactamase [7] = target: T4, Beta-lactamase; assay: inhibition of IMP-1 beta-lactamase activity – biochemical, epi-absorbance, selectivity assay for VIM-2 inhibitor project, dose response (AID 1920)
[8] = target: Arf-GAP with SH3 domain, ANK repeat and PH domain-containing protein 1 (Homo sapiens, UniProt Q9ULH1); assay type: functional;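 note: biochemical fluorescence polarization dose–response screen measuring inhibition of ASAP1; ASAP1 GAP domain stimulating GTP hydrolysis by truncated human ARF1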
Cryptococcus neoformans = assay: PubChem AID 686997; assay type: functional, organism-based
[9] = ATP-based viability loss in HEK293T cells – cell-based, CellTiter-Glo luminescence, cherry-picked samples, set 4, cytotoxicity control, dose response (AID 743441); assay type: functional; settings: HEK293
[10] = target: Matrix metalloproteinase-14 (Homo sapiens, UniProt P50281); assay: Dose Response confirmation of uHTS hits for a small molecule inhibitors of MT1-MMP activation in a fluorescence assay set 1.; assay type: functional
Nonstructural protein 1 = Nonstructural protein 1 (Influenza A virus, UniProt Q194T2); assay type: functional, Influenza A virus (A/California/07/2009(H1N1))
[11] = target: ATP-dependent translocase ABCB1 (Homo sapiens, UniProt P08183); assay: inhibition of P-gp mediated JC-1 efflux – Jurkat-DNR cells, flow cytometry, dose response (AID 1689); assay type: functional
[12] = target: Broad substrate specificity ATP-binding cassette transporter ABCG2 (Homo sapiens, UniProt Q9UNQ0); assay: blockers of JC-1 export by ABCG2 – Ig-MXP3 cells, flow cytometry, dose response (AID 1690); assay type: functional
Interleukin-8 [13] = target: T5, Interleukin-8 (Homo sapiens, UniProt P10145); assay: Dose Response confirmation of uHTS small molecule hits for cystic fibrosis induced NFkb Inhibitors in a TNFa-induced IL8 counterscreen.; assay type: functional; settings: read-out: IC50_Mean
T5 sequence (P10145 whole entry): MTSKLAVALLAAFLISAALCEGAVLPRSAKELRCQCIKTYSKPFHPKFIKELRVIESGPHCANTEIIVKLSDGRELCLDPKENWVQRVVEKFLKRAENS

HEK293 = assay: EBV LMP1 TES2 canonical NF-kB signalling blockers – cell-based, HEK293, luciferase, cherry-pick, dose response (AID 588343); assay type: functional, Homo sapiens; settings: Homo sapiens, HEK293
Interleukin-8 [14] = target: T5, Interleukin-8; assay: Dose Response confirmation of uHTS small molecule hits for cystic fibrosis induced NFkb Inhibitors in a PAF-induced IL8 counterscreen.; assay type: functional; settings: read-out: IC50_Mean
[15] = target: Tyrosine-protein phosphatase non-receptor type 11 (Homo sapiens, UniProt Q06124); assay: PTPN11 enzyme inhibitors – biochemical, selectivity assay for STEP inhibitor project, dose response (AID 602367); assay type: functional; settings: read-out: IC50_Mean
[16] = target: Dual specificity protein phosphatase 3 (Homo sapiens, UniProt P51452); assay: VHR phosphatase inhibition, dose response, selectivity assay for STEP inhibitor project, biochemical (AID 602374); assay type: functional; settings: read-out: IC50_Mean
[17] = target: Tyrosine-protein phosphatase non-receptor type 5 (Homo sapiens, UniProt P54829); assay: PTPN5 enzyme inhibition – biochemical, fluorescence intensity, uHTS hits, confirmation (AID 602372); assay type: functional; settings: read-out: IC50_Mean
[18] = target: ADP-ribosylation factor GTPase-activating protein 1 (Rattus norvegicus, UniProt Q62848); assay: Fluorescence polarization-based biochemical high throughput dose response screening assay to identify inhibitors of ADP-ribosylation factor GTPase activating protein 1 (ARFGAP1).; assay type: functional
[19] = target: Botulinum neurotoxin type F (Clostridium botulinum, UniProt P30996); assay: High-throughput multiplex microsphere dose response for inhibitors of toxin protease, specifically Botulinum neurotoxin light chain F protease, compounds from Cherry Pick 02.; assay type: functional; settings: read-out: EC50_MICROM
[20] = target: Platelet-activating factor acetylhydrolase (Mus musculus, UniProt Q60963); assay: Late stage assay provider results from the probe development effort to identify inhibitors of pPAFAH: fluorescence-based dose-response biochemical gel-based competitive Activity-Based Protein Profiling (ABPP) assay for SAR compounds.; assay type: functional
[21] = anti-trypanosomal activity in BESM host cells – imaging, CA-I/72 strain, bovine embryo skeletal muscle, dry powder, dose response (AID 651885); assay type: functional, cell-based
[22] = L6 myocyte viability loss – cell-based, plate reader, cherry-pick, cytotoxicity control, dose response (AID 651896); assay type: functional
[23] = African trypanosome bloodstream form growth inhibition – STIB900 strain, plate reader, cherry pick, dose response (AID 651893); assay type: functional, cell-based, Trypanosoma brucei rhodesiense; settings: Trypanosoma brucei
[24] = intracellular Trypanosoma cruzi inhibitors in host cells – cell-based, plate reader, cherry-pick samples, set 3, dose response (AID 651818); assay type: functional;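 note: compounds incubated with infected cells for about four days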
[25] = Inhibition of Plasmodium falciparum NF54 Measured in Cell-Based System Using Plate Reader - 2138-11_Inhibitor_Dose_CherryPick_Activity.; assay type: functional
[26] = Inhibition of T. cruzi Tulahuen strain amastigotes in L-6 muscle cells Measured in Cell-Based and Microorganism Combination System Using Plate Reader - 2138-03_Inhibitor_Dose_CherryPick_Activity.; assay type: functional; settings: Rattus norvegicus, L6
[27] = antileishmanial activity on axenic amastigotes – plate reader, cherry pick, dose response (AID 651891); assay type: functional, cell-based; settings: Leishmania donovani
[28] = target: DNA repair protein RAD52 homolog (Homo sapiens, UniProt P43351); assay type: functional, biochemical
[29] = inhibitors of EBV LMP1 NF-kappaB signaling – cell-based, luciferase reporter, luminescence, dry powder, set 2, dose response (AID 624376); assay type: functional
[30] = TNFa-induced NF-kB reporter signal decrease – HEK293 LMP1 reporter cells, dry powder, set 2, selectivity assay for EBV LMP1 NF-kB inhibitor project, dose response (AID 624369); assay type: functional
[31] = HEK293T viability loss – cell-based, ATP luminescence, dry powder, Set6, cytotoxicity control, dose response (AID 743142); assay type: functional; settings: HEK293
[32] = viability of PTEN-deleted HCT116 cells – cell-based, HCT116 PTEN knockout, dose response (AID 1047); assay type: functional;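 note: HCT116 colon tumor cells with PTEN knocked out; cells exposed to compound for 60 hours before readout; potency for loss of cell viability measured by luminescence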
Cytochrome P450 3A4 = Cytochrome P450 3A4 (Homo sapiens, UniProt P08684);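 note: CYP3A4 tested as one member of a cytochrome P450 panel screen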
[33] = viability of HCT116 lacking mutant beta-catenin – cell-based, human colon tumor, dose response (AID 1045); assay type: functional;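 note: HCT116 colon tumor cells with beta catenin knocked out; cells exposed to compound for 60 hours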
[34] = target: DNA repair and recombination protein RAD54-like (Homo sapiens, UniProt Q92698); assay: RAD54 Holliday junction migration blockers – biochemical, fluorescence, cherry-picked samples, dose series, confirmation (AID 651657); assay type: functional
Sequence of DNA repair and recombination protein RAD54-like (Q92698 whole entry): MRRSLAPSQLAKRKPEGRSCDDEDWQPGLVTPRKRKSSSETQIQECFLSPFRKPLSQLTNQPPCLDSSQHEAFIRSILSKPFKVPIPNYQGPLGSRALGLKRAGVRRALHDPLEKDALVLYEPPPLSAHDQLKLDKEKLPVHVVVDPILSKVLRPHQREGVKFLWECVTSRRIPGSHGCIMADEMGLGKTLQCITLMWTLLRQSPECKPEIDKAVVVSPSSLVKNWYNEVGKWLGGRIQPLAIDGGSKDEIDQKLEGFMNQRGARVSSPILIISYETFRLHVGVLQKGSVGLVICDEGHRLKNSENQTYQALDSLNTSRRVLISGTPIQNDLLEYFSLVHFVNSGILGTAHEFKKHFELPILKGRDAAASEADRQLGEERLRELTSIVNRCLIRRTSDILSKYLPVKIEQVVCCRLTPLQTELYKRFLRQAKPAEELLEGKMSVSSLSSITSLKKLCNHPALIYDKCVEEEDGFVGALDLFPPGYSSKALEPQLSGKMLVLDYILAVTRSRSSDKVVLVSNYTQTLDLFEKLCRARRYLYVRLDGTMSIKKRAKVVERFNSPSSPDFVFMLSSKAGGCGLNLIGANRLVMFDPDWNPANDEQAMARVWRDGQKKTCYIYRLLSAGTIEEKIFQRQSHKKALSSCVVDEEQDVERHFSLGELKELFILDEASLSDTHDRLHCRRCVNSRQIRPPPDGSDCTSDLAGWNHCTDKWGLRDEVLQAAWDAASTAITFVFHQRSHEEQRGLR

T4 sequence (Q79MP6 whole entry): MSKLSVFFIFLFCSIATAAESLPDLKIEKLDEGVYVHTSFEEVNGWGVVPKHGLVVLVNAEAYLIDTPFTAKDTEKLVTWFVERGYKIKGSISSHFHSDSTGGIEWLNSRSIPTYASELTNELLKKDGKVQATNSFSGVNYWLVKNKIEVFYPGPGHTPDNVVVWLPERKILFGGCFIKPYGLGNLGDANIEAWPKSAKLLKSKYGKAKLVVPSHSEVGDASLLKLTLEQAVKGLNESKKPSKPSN
Sequence of DNA repair protein RAD52 homolog (P43351 whole entry): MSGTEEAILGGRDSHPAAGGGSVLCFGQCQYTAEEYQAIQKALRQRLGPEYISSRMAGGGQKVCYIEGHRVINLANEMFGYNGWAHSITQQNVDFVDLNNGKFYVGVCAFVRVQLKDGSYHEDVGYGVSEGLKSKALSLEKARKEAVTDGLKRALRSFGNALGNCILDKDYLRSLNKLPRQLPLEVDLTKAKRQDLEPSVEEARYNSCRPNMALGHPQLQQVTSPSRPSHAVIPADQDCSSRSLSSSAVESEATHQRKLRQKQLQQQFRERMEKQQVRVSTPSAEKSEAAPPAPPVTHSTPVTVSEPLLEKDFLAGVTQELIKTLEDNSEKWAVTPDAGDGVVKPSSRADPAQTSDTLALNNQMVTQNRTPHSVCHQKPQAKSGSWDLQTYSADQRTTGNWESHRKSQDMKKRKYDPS
Sequence of Botulinum neurotoxin type F (P30996 1-436 limits assumed): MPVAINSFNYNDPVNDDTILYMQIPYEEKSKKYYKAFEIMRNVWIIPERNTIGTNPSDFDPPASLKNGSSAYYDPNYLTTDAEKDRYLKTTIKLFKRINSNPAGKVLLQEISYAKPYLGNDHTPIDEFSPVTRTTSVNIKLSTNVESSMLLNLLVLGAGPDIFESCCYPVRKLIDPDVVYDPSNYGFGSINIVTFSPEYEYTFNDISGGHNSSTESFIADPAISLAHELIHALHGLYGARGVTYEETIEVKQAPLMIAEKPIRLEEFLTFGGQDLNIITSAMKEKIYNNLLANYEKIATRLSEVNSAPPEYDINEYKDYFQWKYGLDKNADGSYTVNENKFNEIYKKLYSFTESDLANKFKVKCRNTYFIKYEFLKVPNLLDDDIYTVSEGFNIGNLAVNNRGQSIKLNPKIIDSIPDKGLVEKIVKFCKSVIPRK
Sequence of Tyrosine-protein phosphatase non-receptor type 11 (Q06124 whole entry): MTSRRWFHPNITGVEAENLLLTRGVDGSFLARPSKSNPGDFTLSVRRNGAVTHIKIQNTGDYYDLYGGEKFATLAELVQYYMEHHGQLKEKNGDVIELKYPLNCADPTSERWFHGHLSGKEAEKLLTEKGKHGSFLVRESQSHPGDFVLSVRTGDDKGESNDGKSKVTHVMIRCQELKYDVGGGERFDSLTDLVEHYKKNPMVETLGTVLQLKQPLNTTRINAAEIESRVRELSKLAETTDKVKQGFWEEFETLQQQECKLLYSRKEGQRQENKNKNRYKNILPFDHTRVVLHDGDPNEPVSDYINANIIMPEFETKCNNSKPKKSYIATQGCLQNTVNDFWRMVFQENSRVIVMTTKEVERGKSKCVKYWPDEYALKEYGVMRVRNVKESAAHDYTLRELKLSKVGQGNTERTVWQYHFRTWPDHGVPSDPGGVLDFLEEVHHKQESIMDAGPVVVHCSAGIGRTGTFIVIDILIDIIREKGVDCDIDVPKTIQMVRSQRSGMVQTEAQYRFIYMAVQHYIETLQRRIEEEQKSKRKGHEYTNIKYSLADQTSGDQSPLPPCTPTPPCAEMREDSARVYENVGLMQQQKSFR
Sequence of Cytochrome P450 3A4 (P08684 whole entry): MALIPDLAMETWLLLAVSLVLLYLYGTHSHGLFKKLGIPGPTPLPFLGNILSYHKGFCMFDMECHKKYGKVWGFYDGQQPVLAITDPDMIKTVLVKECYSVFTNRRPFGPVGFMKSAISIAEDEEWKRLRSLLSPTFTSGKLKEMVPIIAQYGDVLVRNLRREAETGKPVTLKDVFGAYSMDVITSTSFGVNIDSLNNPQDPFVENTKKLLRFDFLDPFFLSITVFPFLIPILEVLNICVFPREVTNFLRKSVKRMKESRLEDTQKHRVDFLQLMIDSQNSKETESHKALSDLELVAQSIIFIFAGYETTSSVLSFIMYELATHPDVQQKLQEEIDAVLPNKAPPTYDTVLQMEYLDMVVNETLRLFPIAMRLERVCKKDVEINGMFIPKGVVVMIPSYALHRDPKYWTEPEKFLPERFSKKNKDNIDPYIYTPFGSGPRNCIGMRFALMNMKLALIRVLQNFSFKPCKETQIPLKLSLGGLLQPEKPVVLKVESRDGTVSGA
Sequence of Dual specificity protein phosphatase 3 (P51452 whole entry): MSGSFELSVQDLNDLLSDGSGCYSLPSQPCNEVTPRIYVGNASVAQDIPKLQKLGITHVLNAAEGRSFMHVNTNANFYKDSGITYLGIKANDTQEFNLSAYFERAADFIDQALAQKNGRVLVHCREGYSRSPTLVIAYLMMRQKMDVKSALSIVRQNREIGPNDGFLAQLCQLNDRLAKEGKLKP
Sequence of ATP-dependent translocase ABCB1 (P08183 whole entry): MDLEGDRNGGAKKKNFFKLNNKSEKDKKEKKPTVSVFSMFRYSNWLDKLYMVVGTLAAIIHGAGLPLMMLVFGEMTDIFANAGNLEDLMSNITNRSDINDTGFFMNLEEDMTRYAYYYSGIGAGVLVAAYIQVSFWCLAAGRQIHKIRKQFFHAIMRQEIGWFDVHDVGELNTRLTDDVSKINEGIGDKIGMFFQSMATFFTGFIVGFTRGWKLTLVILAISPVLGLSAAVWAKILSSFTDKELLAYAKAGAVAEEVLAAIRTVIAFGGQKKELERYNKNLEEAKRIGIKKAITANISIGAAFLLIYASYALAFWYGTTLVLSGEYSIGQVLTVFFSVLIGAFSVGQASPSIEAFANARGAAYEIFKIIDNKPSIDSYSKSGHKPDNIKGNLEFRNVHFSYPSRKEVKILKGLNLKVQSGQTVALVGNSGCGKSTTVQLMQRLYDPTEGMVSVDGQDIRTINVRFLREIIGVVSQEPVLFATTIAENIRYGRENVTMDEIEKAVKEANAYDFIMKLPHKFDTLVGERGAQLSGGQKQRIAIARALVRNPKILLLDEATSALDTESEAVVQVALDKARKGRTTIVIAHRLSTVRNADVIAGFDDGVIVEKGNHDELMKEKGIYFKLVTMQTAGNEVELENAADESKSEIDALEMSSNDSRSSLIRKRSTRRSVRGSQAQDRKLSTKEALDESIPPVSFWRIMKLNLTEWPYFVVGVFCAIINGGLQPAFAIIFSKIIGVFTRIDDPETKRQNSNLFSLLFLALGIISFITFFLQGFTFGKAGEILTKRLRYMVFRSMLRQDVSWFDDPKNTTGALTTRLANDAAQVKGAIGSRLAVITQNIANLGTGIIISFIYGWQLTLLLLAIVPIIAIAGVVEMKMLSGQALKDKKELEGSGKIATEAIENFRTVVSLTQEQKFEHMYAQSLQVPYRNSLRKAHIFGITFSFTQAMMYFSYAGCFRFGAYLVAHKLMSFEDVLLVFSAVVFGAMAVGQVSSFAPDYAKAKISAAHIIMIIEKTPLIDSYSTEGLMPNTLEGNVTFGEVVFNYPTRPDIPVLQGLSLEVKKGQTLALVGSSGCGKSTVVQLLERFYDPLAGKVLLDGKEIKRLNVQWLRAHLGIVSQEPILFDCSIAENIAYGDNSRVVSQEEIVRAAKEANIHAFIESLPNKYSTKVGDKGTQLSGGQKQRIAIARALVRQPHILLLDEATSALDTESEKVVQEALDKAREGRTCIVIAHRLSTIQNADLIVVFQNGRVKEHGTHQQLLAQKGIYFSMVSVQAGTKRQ
Sequence of Tyrosine-protein phosphatase non-receptor type 5 (P54829 whole entry): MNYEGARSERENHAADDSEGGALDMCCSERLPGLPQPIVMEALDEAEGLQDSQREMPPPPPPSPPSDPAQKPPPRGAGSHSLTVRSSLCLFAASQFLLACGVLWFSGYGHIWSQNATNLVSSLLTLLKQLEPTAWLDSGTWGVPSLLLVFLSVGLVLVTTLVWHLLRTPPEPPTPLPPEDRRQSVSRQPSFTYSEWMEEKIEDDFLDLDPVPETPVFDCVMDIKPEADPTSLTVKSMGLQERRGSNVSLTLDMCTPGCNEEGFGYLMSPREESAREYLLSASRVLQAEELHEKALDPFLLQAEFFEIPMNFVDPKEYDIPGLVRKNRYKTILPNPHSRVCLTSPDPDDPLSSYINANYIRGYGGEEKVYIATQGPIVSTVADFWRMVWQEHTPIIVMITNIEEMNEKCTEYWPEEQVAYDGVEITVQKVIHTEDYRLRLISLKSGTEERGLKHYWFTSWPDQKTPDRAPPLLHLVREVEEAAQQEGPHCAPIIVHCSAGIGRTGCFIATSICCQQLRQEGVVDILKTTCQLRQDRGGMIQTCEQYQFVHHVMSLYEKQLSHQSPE

Cc1cc2oc(=O)cc(-c3cc4ccccc4o3)c2cc1O
IC50 [1]: 21.5 µM (inactive)
IC50 [2]: 3.8 µM (active)
IC50 [3]: 20.7 µM (inactive)
IC50 [4]: 29.1 µM (inactive)

S=c1[nH]nc(-c2cccs2)n1Cc1ccccc1
IC50 (Beta-lactamase [5]): > 59.6 µM (inactive)
IC50 (Beta-lactamase [6]): > 59.6 µM (inactive)
IC50 (Beta-lactamase [7]): > 59.6 µM (inactive)

CC(=O)c1cccc(NC(=O)CSc2ccc(-c3ccc4c(c3)OCO4)nn2)c1
IC50 [8]: 33.9 µM (inactive)

Cc1cc(Cl)ccc1N=C(S)NCc1ccc(F)cc1
AC50 (Cryptococcus neoformans): > 70 µM (inactive)

Cc1cc(C)c(OCCNC(=O)c2ccccc2Sc2ccccc2C#N)c(C)c1
AC50 [9]: > 52 µM (inactive)

CCCN1C(=O)/C(=C2/C=Cc3ccccc3N2CC)SC1=S
IC50 [10]: 29.7 µM (inactive)
IC50 (Nonstructural protein 1): 5.77 µM (active)

CCOC(=O)c1cccc(NC(=O)c2cnc3ccccc3n2)c1
EC50 [11]: 30.7 µM (inactive)
EC50 [12]: 11.8 µM (active)

COc1ccccc1[C@]1(C)ON(c2ccccc2C(F)(F)F)C1=O
IC50 (Interleukin-8 [13]): 24.3 µM (active)
AC50 (HEK293): 7.34 µM (active)
IC50 (Interleukin-8 [14]): 8 µM (active)

NS(=O)(=O)c1ccccc1
IC50 [15]: 8.42 µM (active)
IC50 [16]: 1.5 µM (active)
IC50 [17]: 28.6 µM (inactive)

COc1ccc(-n2c(=O)c3c4c(sc3n3cnnc23)CC(C)CC4)cc1 (centres undefined)
IC50 [18]: 23.1 µM (inactive)

COc1ccc(C(CNC(=O)c2ccc(OC)c(S(=O)(=O)N3CCCC3)c2)N2CCCC2)cc1 (centres undefined)
EC50 [19]: > 20 µM (inactive)

Cc1cc(N2CCN(C(=O)Oc3ccc([N+](=O)[O-])cc3)CC2)c2ccccc2n1
IC50 [20]: 0.179 µM (active)
IC50 [3]: 25.4 µM (inactive)

C[C@H]1CN([C@@H](C)CO)C(=O)c2cccc(NC(=O)c3ccncc3)c2O[C@@H]1CN(C)Cc1ccc(-c2ccccc2)cc1
IC50 [21]: 10 µM (inconclusive)
IC50 [22]: 17.5 µM (active)
IC50 [23]: 6.41 µM (inactive)
AC50 [24]: 0.075 µM (active)
IC50 [25]: 1.14 µM (active)
IC50 [26]: 1.14 µM (active)
IC50 [27]: 6.47 µM (inactive)

Cc1cc(N2CCNC[C@@H]2C)ccc1N1CC[C@@H](O)C1
AC50 [28]: 4.37 µM (active)

C/C=C/c1cccc(-c2nc(C(=O)Nc3nccs3)cc3c2[C@@H](CCO)N(C(=O)NC(C)C)C3)c1
AbsAC35 [29]: 118.9 µM
AbsAC35 [30]: 58.58 µM

O=C(Cc1ccc(Cl)cc1)NCCC(=O)N[C@@H]1CCCc2ccccc21
AC50 [31]: 5.41 µM (active)

CCOc1ccc2nc(C)cc(Nc3ccc4c(c3)OCCO4)c2c1
EC50 [32]: 14.7 µM (active)
AC50 (Cytochrome P450 3A4): 25.1 µM (inconclusive)
EC50 [33]: 11.3 µM (active)
AC50 [34]: 25 µM (active)

Source: ChEMBL document CHEMBL1201862, “PubChem BioAssay data set” (2004)
